Source: patent US5162330A, “Dynemicin C antibiotic, its triacetyl derivative and pharmaceutical composition containing same” (Bristol-Myers Squibb Co., priority 1990, dated 1992)
Values after ≈ are worked out from the molar mass of the structure shown. Where two headings read alike, the source gives them in different places.

Columns and labels:
[1] = system: Candida albicans ATCC 38247; assay: In vitro antifungal MIC; assay type: cell-based
Experimental: (§1) The antifungal MICs of dynemicin C and its triacetate were determined by an agar dilution method on yeast morphology agar adjusted to pH7.0 with 1/15M phosphate buffer. A 5 μl aliquot of fungal suspension containing 10^6 cells/ml was inoculated onto the surface of the antibiotic-containing agar plates with a multiinoculator.

[2] = system: Cryptococcus neoformans D49; assay: In vitro antifungal MIC; assay type: cell-based; details: for MIC: pH 7
Experimental: as §1

[3] = system: S. marcescens IPM-16; assay: In vitro antibacterial MIC; assay type: cell-based; details: Serratia marcescens, IPM16, 18 h, pH 7
Experimental: (§2) The minimum inhibitory concentration (MIC) was determined by a two-fold serial tube dilution method using nutrient agar (pH7, Difco containing 10^5 cfu/ml).

[4] = system: M. morganii I510; assay: In vitro antibacterial MIC; assay type: cell-based; details: Morganella morganii, I510, 18 h, pH 7
Experimental: as §2

[5] = system: M. luteus PCI 1001; assay: In vitro antibacterial MIC; assay type: cell-based; details: Micrococcus luteus, PCI1001, pH 7, nutrient agar pH7, 32° C., 18 hours
Experimental: as §2

[6] = system: E. coli Juhl A15119; assay: In vitro antibacterial MIC; assay type: cell-based; details: Escherichia coli, JUHLA15119, 18 h, pH 7
Experimental: as §2

[7] = system: E. coli 255; assay: In vitro antibacterial MIC; assay type: cell-based; details: Escherichia coli, 255, 18 h, pH 7
Experimental: as §2

[8] = system: P. aeruginosa A9843A; assay: In vitro antibacterial MIC; assay type: cell-based; details: Pseudomonas aeruginosa, 18 h, pH 7
Experimental: as §2

[9] = system: X. maltophilia GN12873; assay: In vitro antibacterial MIC; assay type: cell-based; details: Stenotrophomonas maltophilia, pH 7, nutrient agar pH7, 32° C., 18 hours
Experimental: as §2

[10] = system: S. marcescens IPM-15; assay: In vitro antibacterial MIC; assay type: cell-based; details: Serratia marcescens, IPM15, 18 h, pH 7
Experimental: as §2

[11] = system: P. vulgaris IPM-13; assay: In vitro antibacterial MIC; assay type: cell-based; details: Proteus vulgaris, IPM13, 18 h, pH 7
Experimental: as §2

[12] = system: S. aureus IPM-24 (MRSA); assay: In vitro antibacterial MIC; assay type: cell-based; details: Staphylococcus aureus, 18 h, pH 7
Experimental: as §2

[13] = system: P. cepecia No. 651; assay: In vitro antibacterial MIC; assay type: cell-based; details: 18 h, pH 7
Experimental: as §2

[14] = system: P. mirabilis IFO 3849; assay: In vitro antibacterial MIC; assay type: cell-based; details: Proteus mirabilis, IFO3849, 18 h, pH 7
Experimental: as §2

[15] = system: P. cepecia A21213; assay: In vitro antibacterial MIC; assay type: cell-based; details: 18 h, pH 7
Experimental: as §2

[16] = system: S. aureus A15036 (MRSA); assay: In vitro antibacterial MIC; assay type: cell-based; details: Staphylococcus aureus, 18 h, pH 7
Experimental: as §2

[17] = system: P. aeruginosa IPM-9; assay: In vitro antibacterial MIC; assay type: cell-based; details: Pseudomonas aeruginosa, IPM9, 18 h, pH 7
Experimental: as §2

[18] = system: P. aeruginosa KKA19; assay: In vitro antibacterial MIC; assay type: cell-based; details: Pseudomonas aeruginosa, pH 7, nutrient agar pH7, 32° C., 18 hours
Experimental: as §2

[19] = system: E. faecalis A9808; assay: In vitro antibacterial MIC; assay type: cell-based; details: Enterococcus faecalis, A9808, 18 h, pH 7
Experimental: as §2

[20] = system: K. pneumoniae PCI 602; assay: In vitro antibacterial MIC; assay type: cell-based; details: Klebsiella pneumoniae, PCI602, 18 h, pH 7
Experimental: as §2

[21] = system: E. cloacae IPM-12; assay: In vitro antibacterial MIC; assay type: cell-based; details: Enterobacter cloacae, IPM12, 18 h, pH 7
Experimental: as §2

[22] = system: P. aeruginosa IPM-8; assay: In vitro antibacterial MIC; assay type: cell-based; details: Pseudomonas aeruginosa, IPM8, 18 h, pH 7
Experimental: as §2

[23] = system: X. maltophilia No. 661; assay: In vitro antibacterial MIC; assay type: cell-based; details: Stenotrophomonas maltophilia, pH 7, nutrient agar pH7, 32° C., 18 hours
Experimental: as §2

[24] = system: P. rettgeri IPM-14; assay: In vitro antibacterial MIC; assay type: cell-based; details: Providencia rettgeri, IPM14, 18 h, pH 7
Experimental: as §2

[25] = system: P. aeruginosa A20599; assay: In vitro antibacterial MIC; assay type: cell-based; details: Pseudomonas aeruginosa, A20599, 18 h, pH 7
Experimental: as §2

[26] = system: S. aureus smith; assay: In vitro antibacterial MIC; assay type: cell-based; details: Staphylococcus aureus, 18 h, pH 7
Experimental: as §2

[27] = system: S. epidermidis 11-1230; assay: In vitro antibacterial MIC; assay type: cell-based; details: Staphylococcus epidermidis, 111230, 18 h, pH 7
Experimental: as §2

[28] = system: E. faecium A24817; assay: In vitro antibacterial MIC; assay type: cell-based; details: Enterococcus faecium, pH 7, nutrient agar pH7, 32° C., 18 hours
Experimental: as §2

[29] = system: B16-F10 (murine melanoma) cells; assay: In vitro cytotoxicity; assay type: cell-based; details: Mus musculus, 72 hours, 37° C., neutral red, 540 nm
Experimental: (§3) Dynemicin C and its triacetate derivative were tested for in vitro cytotoxicity against murine and human tumor cell lines. Dynemicin A and its triacetate derivative were used as reference compounds. B16-F10 (murine melanoma) cells were grown to the logarithmic phase in enriched Eagle minimum essential medium (MEM) supplemented with fetal calf serum (FCS, 10%) and kanamycin (60 mcg/ml) and HCT-116 (human colon carcinoma) cells in Maccoy's 5A medium supplemented with FCS (10%), penicillin (100 μ/ml) and streptomycin (100 mcg/ml), and were harvested and inoculated into wells of the 96- or 24-well tissue culture plate with test materials at concentrations of 1.5×10^4, 1.3×10^4, 1.3×10^4, 2.5×10^4 and 3.0×10^4 cells/ml., respectively. They were incubated at 37° C. in a humidified atmosphere of 5% CO2 and 95% air for 72 hours. The cytotoxic activities were determined colorimetrically at 540 nm after staining viable cells with 0.006% neutral red solution.

[30] = system: HCT-116 (human colon carcinoma) cells; assay: In vitro cytotoxicity; assay type: cell-based; details: 72 hours, 37° C., neutral red, 540 nm
Experimental: as §3

[31] = system: C. neoformans IAM4514; assay: In vitro antifungal MIC; assay type: cell-based, Cryptococcus neoformans
Experimental: as §1

[32] = Solubility; assay type: physicochemical; details: solvent not stated
[33] = system: gram-negative organisms; assay: In vitro antibacterial activity, gram-negative organisms as a group; assay type: cell-based; details: 18 h, read-out: MIC (range)
Experimental: as §2

[34] = system: gram-positive organisms; assay: In vitro antibacterial activity, gram-positive organisms as a group; assay type: cell-based
Experimental: as §2

[35] = Candida albicans, ATCC38247, 40 h, pH 7
[36] = Cryptococcus neoformans, D49, 40 h

Compound	MIC [1, 35] [ng/mL]	MIC [2, 36] [ng/mL]	MIC [3] [ng/mL]	MIC [4] [ng/mL]	MIC [5] [ng/mL]	MIC [6] [ng/mL]	MIC [7] [ng/mL]	MIC [8] [ng/mL]	MIC [9] [ng/mL]	MIC [10] [ng/mL]	MIC [11] [ng/mL]	MIC [12] [ng/mL]	MIC [13] [ng/mL]	MIC [14] [ng/mL]	MIC [15] [ng/mL]	MIC [16] [ng/mL]	MIC [17] [ng/mL]	MIC [18] [ng/mL]	MIC [19] [ng/mL]	MIC [20] [ng/mL]	further results
COC1=C(C(=O)O)C(C)C23OC24c2cc(O)c5c(c2NC3C#CC=CC#CC14)C(=O)c1c(O)ccc(O)c1C5=O (centres unmarked) [Dynemicin A, reference compound]	< 3.1	200 (≈ 372 nM)	3.2 (≈ 5.95 nM)	0.8 (≈ 1.49 nM)	< 0.025	3.2 (≈ 5.95 nM)	3.2 (≈ 5.95 nM)	1.6 (≈ 2.98 nM)	1.6 (≈ 2.98 nM)	3.2 (≈ 5.95 nM)	0.8 (≈ 1.49 nM)	< 0.025	0.8 (≈ 1.49 nM)	1.6 (≈ 2.98 nM)	0.8 (≈ 1.49 nM)	< 0.025	6.3 (≈ 11.7 nM)	3.2 (≈ 5.95 nM)	< 0.025	3.2 (≈ 5.95 nM)	MIC [21]: 1.6 ng/mL (≈ 2.98 nM); MIC [22]: 3.2 ng/mL (≈ 5.95 nM); MIC [23]: 0.8 ng/mL (≈ 1.49 nM); MIC [24]: 0.8 ng/mL (≈ 1.49 nM); MIC [25]: 3.2 ng/mL (≈ 5.95 nM); MIC [26]: < 0.025 ng/mL; MIC [27]: < 0.025 ng/mL; MIC [28]: < 0.025 ng/mL; IC50 [29]: 5.2 ng/mL (≈ 9.67 nM); IC50 [30]: 3.2 ng/mL (≈ 5.95 nM); MIC ([31]; Cryptococcus neoformans, IAM4514, 40 h, pH 7): 200 ng/mL (≈ 372 nM)
COC1=C(C=O)C(C)C23OC24c2cc(OC(C)=O)c5c(c2NC3C#CC=CC#CC14)C(=O)c1c(OC(C)=O)ccc(OC(C)=O)c1C5=O (centres unmarked) [Dynemicin C triacetate]	400	> 100000	400	50	3.1	400	400	200	800	800	100	0.4	200	200	200	0.4	6300	400	6.3	200	activity compared with ketoconazole ([1]; Candida albicans ATCC 38247, amphotericin resistant, in words): stronger than that of ketoconazole; activity (compared with amphotericin B and ketoconazole) ([2]; Cryptococcus neoformans D49, in words): inactive; solubility relative to dynemicin C [32]: increased solubility relative to dynemicin C; MIC [21]: 800 ng/mL; MIC [22]: 400 ng/mL; MIC [23]: 200 ng/mL; MIC [24]: 100 ng/mL; MIC [25]: 400 ng/mL; MIC [26]: 0.8 ng/mL; MIC [27]: 0.8 ng/mL; MIC [28]: 6.3 ng/mL; MIC [33]: 50 to 800 ng/mL; activity against gram-positive organisms compared with amikacin ([34]; comparison in words): much better activities against these organisms than amikacin; activity against gram-positive organisms ([34]; in words): strong activity; IC50 [29]: 0.74 ng/mL; IC50 [30]: 2.8 ng/mL; activity (compared with amphotericin B and ketoconazole) ([31]; C. neoformans IAM4514, in words): inactive
CC(=O)N1CCN(c2ccc(OCC3COC(Cn4ccnc4)(c4ccc(Cl)cc4Cl)O3)cc2)CC1 (centres unmarked) [Ketoconazole, reference compound]	–	–	–	–	–	–	–	–	–	–	–	–	–	–	–	–	–	–	–	–	MIC ([1]; ATCC38247, pH 7, Candida albicans ATCC 38247, amphotericin resistant strain, yeast morphology agar pH7.0, 28° C., 40 hours, read-out: MIC): 6300 ng/mL (≈ 11900 nM); MIC ([2]; Cryptococcus neoformans D49, yeast morphology agar pH7.0, 28° C., 40 hours, read-out: MIC): 100 ng/mL (≈ 188 nM); MIC ([31]; IAM4514, pH 7, Cryptococcus neoformans IAM 4514, yeast morphology agar pH7.0, 28° C., 40 hours, read-out: MIC): 100 ng/mL (≈ 188 nM)
